The data set in a line: Treatment of a dog with soft tissue sarcoma and lung metastasis by pulmonary aerosol administration. The class given is in vivo, dog (Golden Retriever). As to conditions: agent aerosolized alone, without emulsion; general observation. How it is done:
A 9 year old Golden Retriever with soft tissue sarcoma and extensive lung metastasis was treated with 9 mg/ml twice weekly for 10 weeks by pulmonary aerosol administration (FIG. 7A & FIG. 7B). […]

As for `Nc1ccn([C@@H]2O[C@H](CO)[C@@H](O)C2(F)F)c(=O)n1` [Gemcitabine, gemcitabine], the “necrosis in lung parenchyma and pleural metastasis” value is reported as “severe necrosis is always observed”.
